# Experimental data as given in US20140271727A1, “METHOD OF USING AN ANTIDEPRESSANT FOR INCREASING IMMUNITY OF A SUBJECT AND TREATING CANCER” (NATIONAL YANG-MING UNIVERSITY, priority 2013, published 2014).
# What was measured:
# IL-12p70 = assay: Serum IL-12p70 (sIL-12) ELISA in BALB/c mice; assay type: in vivo, mouse
# Procedure: (§1) Second, all animal study protocols were approved by the Institutional Animal Care and Use Committee (IACAU) of National Yang Ming University. Mirtazapine (0.25 mg) was dissolved in 0.05 ml of 0.9% NaCl plus 0.5% absolute ethanol for each mouse (i.e. 10 mg/kg.) Male BALB/c mice (initial weights 25±2 g, and purchased from the National Laboratory Animal Center, Taipei, Taiwan) were housed in the cages, five mice per cage, under a 12:12 h reverse light/dark cycle with lights off at 6 pm Animals were handled and weighed daily for a week to reduce any non-specific stress responses. And then, please refer to FIG. 1A and FIG. 1B, FIG. 1A and FIG. 1B are diagrams showing the experimental designs according to an embodiment of the present invention. […] “Wild-type” means the mice are monitored without tumor inoculation and mirtazapine treatment, drug means the mice are monitored with continuous mirtazapine treatment but without tumor inoculation, never means the mice are monitored with tumor inoculation and daily 0.05 ml of 0.9% NaCl plus 0.5% absolute ethanol treatment but without mirtazapine treatment, always means the mice are monitored with mirtazapine treatment initiated 2 weeks before the tumor inoculation, and concurrent means the mice are monitored with tumor inoculation and mirtazapine treatment on the same day, and after means the mice are monitored with mirtazapine treatment initiated 2 weeks post the tumor inoculation. That is, the mice were assayed on day 22 for behaviors, and then sacrificed for the measurement of lymphocyte subsets and performed with ex vivo autoradiography.
# (§2) As to the quantification of interleukin-12 (hereafter called “IL-12”), the whole blood withdrawn from the pouch of each mouse was centrifuged at 600×g for 20 min, and serum was collected. The serum IL-12p70 (sIL-12) level was determined using an ELISA kit (R&D Systems, Taiwan). Identification for the lymph node cluster of differentiated CD4+ T helper and CD8+T-cytotoxic lymphocyte subsets was assayed. Briefly, the lymphocytes isolated from the lymph nodes of groins of mice were stained with phycoerythrin-conjugated antimouse CD4 (CD4-PE) monoclonal antibody and peridininchlorophyll-protein-complex-conjugated anti-mouse CD8 (CD8-PerCP) monoclonal antibody (BioLegend, USA). Lymphocyte subsets were identified by FACS analysis using a FACS Calibur flow cytometer. Immunohistochemistry (IHC) of CD4 and CD8 was also performed on day 42 post the tumor inoculation. Tumors were then removed, paraffin embedded, and […] sectioning was performed. The sections were immunohistostained with antibodies against CD4 (BioLegend, USA) and CD8 (BioLegend, USA), respectively. The procedures of immunohistostaining were followed the protocols provided with the IHC kit (Millipore, USA). All images were digitally captured on a Scanscope CS system (Aperio, USA).
# CD4+ and CD8+ T cells = assay: Lymph node CD4+ and CD8+ T lymphocyte subsets by FACS; assay type: in vivo, mouse; conditions: flow cytometry
# Procedure: Preferably, the results as shown in FIG. 4C and FIG. 4D are performed by a flow cytometer, and a target cell population will be screened out by utilizing at least one flow cytometer to identify different surface markers of different cells. Flow cytometry allows for single cell analysis at speeds far surpassing any other single cell analysis technology in the art. This enables a statistically significant number of cells to be analyzed faster than using other alternative techniques. In a preferred embodiment, a flow cytometer is used with any suitable sample preparation robot or liquid handler that is known in the art. Furthermore, a single laser flow cytometer is used in an embodiment for the analyzing step. In another embodiment, a multi-laser flow cytometer is used for the analyzing step and the present invention is not limited thereto.
# as §1, §2
# TNF-α = TNF-α in tumor by ex vivo Western blotting; design: species or system mouse; conditions: Always, Concurrent and After; day 42 post tumor inoculation; decreased to % of Never
# Procedure: As to the quantification of TNF-α, the whole blood withdrawn from the pouch of each mouse once a week for up to 6 weeks was centrifuged at 600×g for 20 min, and serum was collected. The serum TNF-α level was evaluated with an ELISA kit (eBioscience, USA). The level of TNF-α in the tumor of mice on day 42 post tumor inoculation was determined using ex vivo Western Blotting assay. Briefly, 6 weeks after tumor inoculation, the mice were sacrificed and the tumors were quickly removed and minced, then added with lysis buffer containing 1% protease inhibitor cocktail (T-PER tissue protein extraction reagent, Thermo Scientific, USA). Equal amounts of proteins (40 μg) were subjected to SDS-PAGE and transferred to PVDF membranes (Millipore, Bedford, Mass.). Non-specific binding was blocked by incubation with 5% non-fat milk. Membrane was incubated with antibodies against TNF-α (Abbiotec, USA) and β-actin (Millipore, USA) overnight at 4° C. The goat-anti rabbit IgG (Millipore) and goat-anti mouse IgG conjugated with horseradish peroxidase (Millipore) were used as the secondary antibodies. The band signal from the antigen-antibody binding was illustrated with enhanced chemoluminescence system (ECL, Millipore). Image J software (National Institutes of Health, USA) was used for the quantitative analysis.
# [1] = group Always, CT26/luc tumor-bearing
# [2] = group Concurrent, CT26/luc tumor-bearing
# [3] = group Drug: continuous mirtazapine 10 mg/kg/d, no tumor
# [4] = group after, CT26/luc tumor-bearing
smiles,measurement,setting,value
CN1CCN2c3ncccc3Cc3ccccc3C2C1 (stereo not drawn) [mirtazapine],sIL-12 concentration increase,IL-12p70; group after (never: 13 folds),16 folds
same,sIL-12 concentration,"IL-12p70; group after, 6 weeks post tumor inoculation",dropped to the control level
same,sIL-12 concentration increase to peak level,"IL-12p70; group always, peak at 1 wk post tumor cell inoculation",18 folds
same,sIL-12 concentration increase,IL-12p70; group concurrent (never: 13 folds),17 folds
same,sIL-12 concentration increase to peak level,"IL-12p70; group drug (no tumor), peak at 0 wk post tumor cell inoculation",13 folds
same,sIL-12 concentration,"IL-12p70; group drug, 4 wks post tumor cell inoculation, never 7 pg/ml",42 pg/mL
same,CD4+ T cells (10^4 events),CD4+ and CD8+ T cells; [1],29.75 ± 1.96%
same,CD8+ T cells (10^4 events),CD4+ and CD8+ T cells; [1],32.77 ± 7.43%
same,CD4+ T cells (10^4 events),CD4+ and CD8+ T cells; [2],25.77 ± 0.73%
same,CD8+ T cells (10^4 events),CD4+ and CD8+ T cells; [2],22.41 ± 5.03%
same,CD4+ T cells (10^4 events),CD4+ and CD8+ T cells; [3],30.97 ± 1.40%
same,CD8+ T cells (10^4 events),CD4+ and CD8+ T cells; [3],30.95 ± 6.57%
same,CD4+ T cells (10^4 events),CD4+ and CD8+ T cells; [4],22.58 ± 1.15%
same,CD8+ T cells (10^4 events),CD4+ and CD8+ T cells; [4],15.86 ± 4.78%
same,TNF-α level in tumors relative to Never,TNF-α,40%
